# Results published in patent US20210038607A1, “OXADIAZOLYLTHIOPHENE DERIVATIVES USEFUL AS HISTONE DEACETYLASE INHIBITORS” (Karus Therapeutics Limited, priority 2018, published 2021).
# Key:
# Human HDAC5 = molecular target: T1, Human HDAC5 (Homo sapiens, UniProt Q9UQL6); test: HDAC5 biochemical assay, class IIa-specific substrate; conditions: read-out: HDAC Isoform IC50 (nM) 5
# T1 construct: full length with C-terminal His tag, MW=51.1 kDa; His (C); host or cells: baculovirus expression system
# T1 sequence (Q9UQL6 656-1122 limits assumed): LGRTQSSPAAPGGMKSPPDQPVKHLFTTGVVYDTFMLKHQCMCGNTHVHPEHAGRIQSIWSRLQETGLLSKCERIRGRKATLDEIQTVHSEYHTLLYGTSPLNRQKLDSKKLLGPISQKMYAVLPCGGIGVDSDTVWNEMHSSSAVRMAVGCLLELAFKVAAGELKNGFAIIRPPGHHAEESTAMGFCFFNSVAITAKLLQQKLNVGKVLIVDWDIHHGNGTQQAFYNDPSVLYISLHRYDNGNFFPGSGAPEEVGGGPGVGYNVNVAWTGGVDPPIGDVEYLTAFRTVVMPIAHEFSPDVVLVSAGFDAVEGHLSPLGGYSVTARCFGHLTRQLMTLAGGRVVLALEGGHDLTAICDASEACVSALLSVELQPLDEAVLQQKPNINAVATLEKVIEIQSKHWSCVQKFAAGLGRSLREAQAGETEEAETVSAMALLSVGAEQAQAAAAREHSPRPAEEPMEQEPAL
# Procedure, shortened: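 Two-step fluorogenic read-out: deacetylated trifluoroacetyl-lysine AMC substrate (50 μM) digested by developer, measured at Ex/Em 360/460. Deacetylation step: 0.05 ng/ul His-tagged full-length baculoviral enzyme with compound, 30 min, room temperature, pH 8.0 Tris with 1 mg/mL BSA and 1% DMSO.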
# Human HDAC11 = molecular target: T2, Human HDAC11 (Homo sapiens, UniProt Q96DB2); test: HDAC11 biochemical assay, class IIa-specific substrate; conditions: read-out: HDAC Isoform IC50 (nM) 11
# T2 construct: Human HDAC11 (full length); His (N); host or cells: baculovirus expression system
# T2 sequence (Q96DB2 1-347): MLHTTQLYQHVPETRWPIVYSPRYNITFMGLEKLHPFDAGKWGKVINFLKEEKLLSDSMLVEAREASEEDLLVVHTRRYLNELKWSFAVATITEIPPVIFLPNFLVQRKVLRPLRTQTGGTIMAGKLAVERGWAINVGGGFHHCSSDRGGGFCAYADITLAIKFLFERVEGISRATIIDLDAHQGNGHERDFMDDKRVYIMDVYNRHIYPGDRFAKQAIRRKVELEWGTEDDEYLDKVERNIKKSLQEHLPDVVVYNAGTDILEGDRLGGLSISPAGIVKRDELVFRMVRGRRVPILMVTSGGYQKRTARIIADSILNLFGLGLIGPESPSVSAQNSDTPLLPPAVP
# Procedure, shortened: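 Full-length N-His human HDAC11 from baculovirus, 5 ng/μl, incubated with 50 μM Boc-Lys(trifluoroacetyl)-AMC for 30 min at 30 °C. Buffer: 50 mM Tris-HCl pH 8.0, 137 mM NaCl, 2.7 mM KCl, 1 mM MgCl2, 1 mg/mL BSA, 1% DMSO. Developer releases AMC; fluorescence read at 360/460 nm.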
# Human HDAC4 = molecular target: T3, Human HDAC4 (Homo sapiens, UniProt P56524); test: HDAC4 biochemical assay, class IIa-specific substrate; conditions: read-out: HDAC Isoform IC50 (nM) 4
# T3 construct: amino acids 627-1085 with N-terminal GST tag; GST (N); host or cells: baculovirus expression system
# T3 sequence (P56524 627-1084 limits assumed): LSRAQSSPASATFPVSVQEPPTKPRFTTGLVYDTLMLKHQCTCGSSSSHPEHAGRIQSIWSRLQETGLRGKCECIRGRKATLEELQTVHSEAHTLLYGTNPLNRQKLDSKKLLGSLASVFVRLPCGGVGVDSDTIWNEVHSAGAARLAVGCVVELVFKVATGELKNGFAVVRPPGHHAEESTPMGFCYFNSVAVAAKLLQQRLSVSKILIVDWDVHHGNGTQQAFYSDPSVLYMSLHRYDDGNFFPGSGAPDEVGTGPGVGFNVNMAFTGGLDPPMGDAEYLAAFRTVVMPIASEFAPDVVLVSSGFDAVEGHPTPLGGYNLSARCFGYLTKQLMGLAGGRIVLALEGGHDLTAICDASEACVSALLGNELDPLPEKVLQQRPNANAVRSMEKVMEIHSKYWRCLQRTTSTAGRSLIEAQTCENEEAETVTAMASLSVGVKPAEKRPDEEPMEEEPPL
# Procedure, shortened: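 Two-step fluorogenic read-out: deacetylated BOC-Lys(trifluoroacetyl)-AMC (50 μM) was digested by developer and measured at Ex/Em 360/460. Deacetylation by 0.004 ng/ul HDAC4 (aa 627-1085, N-terminal GST) ran 30 min at room temperature, pH 8.0 Tris buffer, 1 mg/mL BSA, 1% DMSO.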
# Human HDAC1 = molecular target: T4, Human HDAC1 (Homo sapiens, UniProt Q13547); test: HDAC1 biochemical assay, AMC-labeled peptide substrate; conditions: read-out: HDAC Isoform IC50 (nM) 1
# T4 construct: full length with C-terminal His-tag and C-terminal FLAG-tag; His (C); FLAG (C); host or cells: baculovirus expression system
# T4 sequence (Q13547 whole entry, canonical isoform): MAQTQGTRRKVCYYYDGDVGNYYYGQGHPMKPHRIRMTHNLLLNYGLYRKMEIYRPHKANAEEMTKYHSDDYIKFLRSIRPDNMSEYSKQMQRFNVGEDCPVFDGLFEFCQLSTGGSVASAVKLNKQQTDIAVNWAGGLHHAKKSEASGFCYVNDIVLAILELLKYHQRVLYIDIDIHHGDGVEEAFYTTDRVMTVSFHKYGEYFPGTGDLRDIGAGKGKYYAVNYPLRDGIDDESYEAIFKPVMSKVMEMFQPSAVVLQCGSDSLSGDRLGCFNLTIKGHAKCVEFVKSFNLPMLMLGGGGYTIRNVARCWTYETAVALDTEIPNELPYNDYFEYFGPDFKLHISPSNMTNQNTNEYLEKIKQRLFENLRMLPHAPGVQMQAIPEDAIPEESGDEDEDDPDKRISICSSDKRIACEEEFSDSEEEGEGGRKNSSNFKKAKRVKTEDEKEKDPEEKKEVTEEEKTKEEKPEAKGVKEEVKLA
# Procedure, shortened: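 Two-step fluorogenic read: HDAC1 deacetylates 50 μM acetyl-lysine AMC peptide RHKK(Ac)AMC for 1 h at 30° C (pH 8.0, 1% DMSO, with compound), then developer digests the product for fluorescence at Ex/Em 360/460. Enzyme is full-length human, His/FLAG-tagged, insect-cell expressed, at 0.3 ng/ul.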
# Human HDAC7 = molecular target: T5, Human HDAC7 (Homo sapiens, UniProt Q8WUI4); test: HDAC7 biochemical assay, class IIa-specific substrate; conditions: read-out: HDAC Isoform IC50 (nM) 7
# T5 construct: (a.a. 518-end) with N-terminal GST tag; GST (N); host or cells: baculovirus expression system
# T5 sequence (Q8WUI4 518-952 limits assumed): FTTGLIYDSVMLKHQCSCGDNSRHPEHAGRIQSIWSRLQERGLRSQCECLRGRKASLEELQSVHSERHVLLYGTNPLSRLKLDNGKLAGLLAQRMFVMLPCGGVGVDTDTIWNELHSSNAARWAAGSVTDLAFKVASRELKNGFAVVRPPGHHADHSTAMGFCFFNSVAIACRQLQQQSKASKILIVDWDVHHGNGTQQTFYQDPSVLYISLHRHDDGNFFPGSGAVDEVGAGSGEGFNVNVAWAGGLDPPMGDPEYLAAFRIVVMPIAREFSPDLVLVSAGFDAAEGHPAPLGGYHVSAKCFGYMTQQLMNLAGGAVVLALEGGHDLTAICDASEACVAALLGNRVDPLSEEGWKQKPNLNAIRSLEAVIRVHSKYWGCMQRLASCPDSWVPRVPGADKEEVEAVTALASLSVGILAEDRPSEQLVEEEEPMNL
# Procedure, shortened: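 Two-step fluorogenic readout: class IIa-selective trifluoroacetyl-lysine AMC substrate (50 μM) deacetylated by N-terminal GST-HDAC7 fragment (0.001 ng/ul), then digested by developer, Ex/Em 360/460. Reaction: 30 min, room temperature, Tris-HCl pH 8.0, NaCl/KCl/MgCl2, 1 mg/mL BSA, 1% DMSO.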
# [1] = molecular target: T6, Complex of human HDAC3 and human NCOR2 (Homo sapiens, UniProt O15379); test: HDAC3 biochemical assay, AMC-labeled peptide substrate; conditions: read-out: HDAC Isoform IC50 (nM) 3
# T6 construct: full length with C-terminal His tag, MW=49.7 kDa; His (C); host or cells: baculovirus expression system (co-expressed)
# T6 sequence (O15379 whole entry, canonical isoform): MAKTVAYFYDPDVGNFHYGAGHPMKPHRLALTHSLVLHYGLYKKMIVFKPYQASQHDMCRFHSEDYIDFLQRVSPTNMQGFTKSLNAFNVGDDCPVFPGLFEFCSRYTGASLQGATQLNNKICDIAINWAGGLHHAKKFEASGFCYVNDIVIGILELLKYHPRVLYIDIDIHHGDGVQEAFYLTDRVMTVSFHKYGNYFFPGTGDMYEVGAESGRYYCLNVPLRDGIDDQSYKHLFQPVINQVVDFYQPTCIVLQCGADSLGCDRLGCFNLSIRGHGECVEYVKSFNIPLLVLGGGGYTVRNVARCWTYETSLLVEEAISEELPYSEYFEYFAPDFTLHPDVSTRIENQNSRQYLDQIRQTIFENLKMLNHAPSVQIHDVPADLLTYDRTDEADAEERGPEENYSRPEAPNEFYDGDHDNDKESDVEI
# T6 sequence (Q9Y618 395-489 partner limits assumed): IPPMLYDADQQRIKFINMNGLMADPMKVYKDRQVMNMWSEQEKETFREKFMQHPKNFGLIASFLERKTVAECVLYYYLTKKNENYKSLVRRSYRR
# Procedure, shortened: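 Two-stage fluorogenic read: compounds incubated 1 h at 30° C with 50 μM RHKK(Ac)AMC and 0.1 ng/ul HDAC3–NCOR2(395-489) complex (Tris pH8.0, NaCl, KCl, MgCl2, BSA, 1% DMSO). Developer digestion of deacetylated product gives signal at Ex 360/Em 460.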
Structure (SMILES),IC50 (Human HDAC5) [nM],IC50 (Human HDAC11) [nM],IC50 (Human HDAC4) [nM],IC50 (Human HDAC1) [nM],IC50 (Human HDAC7) [nM],IC50 [1] [nM]
"FC(F)(F)c1nc(-c2ccc(CN(c3cncnc3)c3cnccn3)s2)no1 [Example CR, N-(Pyrazin-2-yl)-N-({5-[5-(trifluoromethyl)-1,2,4-oxadiazol-3-yl]thiophen-2-yl}methyl)pyrimidin-5-amine]",≤ 500,> 10000,≤ 500,> 10000,≤ 500,> 10000
"CS(=O)(=O)c1nccc(N(Cc2ccc(-c3noc(C(F)(F)F)n3)s2)c2cnccn2)n1 [Example CE, 2-Methanesulfonyl-N-(pyrazin-2-yl)-N-({5-[5-(trifluoromethyl)-1,2,4-oxadiazol-3-yl]thiophen-2-yl}methyl)pyrimidin-4-amine]",≤ 1000,,≤ 10000,≤ 10000,≤ 1000,
"FC(F)(F)c1nc(-c2ccc(CN(c3ccncn3)c3cnccn3)s2)no1 [Example BZ, N-(Pyrazin-2-yl)-N-({5-[5-(trifluoromethyl)-1,2,4-oxadiazol-3-yl]thiophen-2-yl}methyl)pyrimidin-4-amine]",≤ 500,> 10000,≤ 500,> 10000,≤ 500,> 10000

# Now from value to compound:
IC50 (Human HDAC5) [nM],IC50 (Human HDAC11) [nM],IC50 (Human HDAC4) [nM],IC50 (Human HDAC1) [nM],IC50 (Human HDAC7) [nM],IC50 [1] [nM],Structure (SMILES)
≤ 1000,> 10000,≤ 1000,≤ 10000,≤ 10000,≤ 10000,"FC(F)(F)c1ccc(N(Cc2ccc(-c3noc(C(F)(F)F)n3)s2)c2cnccn2)nn1 [Example DH, N-(Pyrazin-2-yl)-6-(trifluoromethyl)-N-({5-[5-(trifluoromethyl)-1,2,4-oxadiazol-3-yl]thiophen-2-yl}methyl)pyridazin-3-amine]"
≤ 10000,> 10000,≤ 10000,> 10000,≤ 10000,> 10000,"FC(F)(F)c1nc(-c2ccc(CN(c3ccccn3)c3cnccn3)s2)no1 [Example V, N-(Pyridin-2-yl)-N-({5-[5-(trifluoromethyl)-1,2,4-oxadiazol-3-yl]thiophen-2-yl}methyl)pyrazin-2-amine]"
≤ 1000,> 10000,≤ 1000,≤ 10000,≤ 1000,≤ 10000,"FC(F)(F)c1nc(-c2ccc(CN(c3cnccn3)c3ccc(N4CCCC4)nn3)s2)no1 [Example DI, N-(Pyrazin-2-yl)-6-(pyrrolidin-1-yl)-N-({5-[5-(trifluoromethyl)-1,2,4-oxadiazol-3-yl]thiophen-2-yl}methyl)pyridazin-3-amine]"
≤ 500,> 10000,≤ 500,≤ 10000,≤ 1000,> 10000,"CS(=O)(=O)c1ccc(N(Cc2ccc(-c3noc(C(F)(F)F)n3)s2)c2cnccn2)nn1 [Example DL, 6-Methanesulfonyl-N-(pyrazin-2-yl)-N-({5-[5-(trifluoromethyl)-1,2,4-oxadiazol-3-yl]thiophen-2-yl}methyl)pyridazin-3-amine]"
